In publication PMC5623904, “Structural investigation of nucleophosmin interaction with the tumor suppressor Fbw7γ” (Oncogenesis, 2017):
Like-named read-outs stand apart in the source and are kept apart here. Peptide text beside a SMILES is read from it. * marks the point of attachment. Dansyl = CN(C)c1cccc2c(S(=O)(=O)*)cccc12

What was measured:
Assay type in all cases: binding
[1] = molecular target: T1, Nter-NPM1 D36A-E37A-E39A-E93A-E121A (Homo sapiens, UniProt P06748, D36A/E121A/E37A/E39A/E93A); test: Equilibrium fluorescence titration, Nter-NPM1 quintuple mutant; details: dansylated peptide 5 μM; for Kd: sodium phosphate 20 mM pH 7.2, 25 °C, triplicate, ±s.d.
T1 construct: inferred from pET28a NdeI/BamHI cloning and HisTrap purification) (N); made in house; host or cells: Escherichia coli BL21(DE3)
Procedure: (§1) Nter-NPM1 mutants were obtained by site-directed mutagenesis using the Quickchange II Lightning Site-Directed Mutagenesis kit (Stratagene, La Jolla, CA, USA), following manufacturer’s instructions. Oligonucleotides used for PCR were obtained from Primm Biotech (Milan, Italy). Forward oligonucleotides used are reported in Supplementary Table 2.
(§2) All experiments were performed at 25 °C in sodium phosphate buffer 20 mM pH 7.2, or in sodium phosphate buffer 20 mM plus 100 mM NaCl pH 7.2 (which sets ionic strength to 150 mM), using a FluoroMax-4 spectrofluorometer (Jobin Yvon, Edison, NJ, USA), equipped with a water bath apparatus. Fbw7γ and CENP-W peptides, functionalized with a dansyl (5-dimetilamminonaftalen-1-sulphonyl) group at their N terminus, were purchased from JPT (Germany). Tat peptide was synthesized employing the solid phase method following standard Fmoc strategies and labeled with dansyl fluorophore at its N terminus. Crude product was purified by RP-HPLC applying a linear gradient of 0.1% TFA CH3CN in 0.1% TFA water from 5% to 65% over 12 min using a semi-preparative 2.2 × 5 cm C18 column at a flow rate of 20 ml/min. Purity and identity were confirmed by LC–MS analysis.
(§3) Titration experiments were conducted with an excitation wavelength of 330 nm while the fluorescence emission spectra were collected in the range between 350 and 650 nm. Titrations were performed at constant peptide concentration (5 μM) and varying protein concentrations (from 0 to 200/400 μM). Titrations were performed in triplicate and data, analyzed with the Graphpad Prism software (https://www.graphpad.com/scientific-software/prism/), were reported as dissociation constant±s.d.
(§4) Equilibrium binding curves were fitted to the standard quadratic equation: […]
(§5) where F is the observed fluorescence signal, n and [A]0 are the total concentration of non-varied and varied species, respectively, and KD is the equilibrium dissociation constant. B and C are constants taking into account the total fluorescence change and fluorescence at [A]0=0, respectively, and k is a term describing the slope of the curve at high protein concentration. Whenever possible, under pseudo first-order conditions, the equation 1 was simplified to: […]

[2] = molecular target: T2, Nter-NPM1 D36A-E37A-E39A-E93A (Homo sapiens, UniProt P06748, D36A/E37A/E39A/E93A); test: Equilibrium fluorescence titration, Nter-NPM1 quadruple mutant (E37A); details: dansylated peptide 5 μM
T2 construct: inferred from pET28a NdeI/BamHI cloning and HisTrap purification) (N); made in house; host or cells: Escherichia coli BL21(DE3)
Procedure: as §1, §2, §3, §4, §5

[3] = molecular target: T3, Nter-NPM1 (residues 16-123) (Homo sapiens, UniProt P06748); test: Equilibrium fluorescence titration of dansylated peptide with Nter-NPM1
T3 construct: inferred from pET28a NdeI/BamHI cloning and HisTrap purification) (N); made in house; host or cells: Escherichia coli BL21(DE3)
Procedure: as §2, §3, §4, §5

[4] = molecular target: T4, Nter-NPM1 D36A-E39A-E93A-E121A (Homo sapiens, UniProt P06748, D36A/E121A/E39A/E93A); test: Equilibrium fluorescence titration, Nter-NPM1 quadruple mutant (E121A); details: dansylated peptide 5 μM; sodium phosphate 20 mM pH 7.2, 25 °C; triplicate, ±s.d.
T4 construct: inferred from pET28a NdeI/BamHI cloning and HisTrap purification) (N); made in house; host or cells: Escherichia coli BL21(DE3)
Procedure: as §1, §2
as §3, with “constant±s.d. […]” for “constant±s.d.”
as §5, with “concentration.” for “concentration. Whenever possible, under pseudo first-order conditions, the equation 1 was simplified to:”

[5] = molecular target: T5, Nter-NPM1 D36A-E39A-E93A (Homo sapiens, UniProt P06748, D36A/E39A/E93A); test: Equilibrium fluorescence titration, Nter-NPM1 triple mutant; details: dansylated peptide 5 μM
T5 construct: inferred from pET28a NdeI/BamHI cloning and HisTrap purification) (N); made in house; host or cells: Escherichia coli BL21(DE3)
Procedure: as §1, §2, §3, §4, §5

[6] = molecular target: T6, Nter-NPM1 E39A (Homo sapiens, UniProt P06748, E39A); test: Equilibrium fluorescence titration, Nter-NPM1 E39A mutant; details: dansylated peptide 5 μM; sodium phosphate 20 mM pH 7.2, 25 °C; triplicate, ±s.d.
T6 construct: inferred from pET28a NdeI/BamHI cloning and HisTrap purification) (N); made in house; host or cells: Escherichia coli BL21(DE3)
Procedure: as §1
(§6) All experiments were performed at 25 °C in sodium phosphate buffer 20 mM pH 7.2, or in sodium phosphate buffer 20 mM plus 100 mM NaCl pH 7.2 (which sets ionic strength to 150 mM), using a FluoroMax-4 spectrofluorometer (Jobin Yvon, Edison, NJ, USA), equipped with a water bath apparatus. […]
as §3, with “Titrations were performed at constant peptide concentration (5 μM) and varying protein concentrations (from 0 to 200/400 μM).” left out, “constant±s.d. […]” for “constant±s.d.”
as §5, with “concentration.” for “concentration. Whenever possible, under pseudo first-order conditions, the equation 1 was simplified to:”

[7] = molecular target: T7, Nter-NPM1 E39A-E93A (Homo sapiens, UniProt P06748, E39A/E93A); test: Equilibrium fluorescence titration, Nter-NPM1 E39A-E93A mutant; details: dansylated peptide 5 μM; sodium phosphate 20 mM pH 7.2, 25 °C; triplicate, ±s.d.
T7 construct: inferred from pET28a NdeI/BamHI cloning and HisTrap purification) (N); made in house; host or cells: Escherichia coli BL21(DE3)
Procedure: as §1, §6
as §3, with “Titrations were performed at constant peptide concentration (5 μM) and varying protein concentrations (from 0 to 200/400 μM).” left out, “constant±s.d. […]” for “constant±s.d.”
as §5, with “concentration.” for “concentration. Whenever possible, under pseudo first-order conditions, the equation 1 was simplified to:”

[8] = molecular target: T8, Nter-NPM1 E37A (Homo sapiens, UniProt P06748, E37A); test: Equilibrium fluorescence titration, Nter-NPM1 E37A mutant; details: dansylated peptide 5 μM; sodium phosphate 20 mM pH 7.2, 25 °C; triplicate, ±s.d.
T8 construct: inferred from pET28a NdeI/BamHI cloning and HisTrap purification) (N); made in house; host or cells: Escherichia coli BL21(DE3)
Procedure: as §1, §6
as §3, with “Titrations were performed at constant peptide concentration (5 μM) and varying protein concentrations (from 0 to 200/400 μM).” left out, “constant±s.d. […]” for “constant±s.d.”
as §5, with “concentration.” for “concentration. Whenever possible, under pseudo first-order conditions, the equation 1 was simplified to:”

[9] = molecular target: T9, Nter-NPM1 D36A-E93A (Homo sapiens, UniProt P06748, D36A/E93A); test: Equilibrium fluorescence titration, Nter-NPM1 D36A-E93A mutant; details: dansylated peptide 5 μM; sodium phosphate 20 mM pH 7.2, 25 °C; triplicate, ±s.d.
T9 construct: inferred from pET28a NdeI/BamHI cloning and HisTrap purification) (N); made in house; host or cells: Escherichia coli BL21(DE3)
Procedure: as §1, §6
as §3, with “Titrations were performed at constant peptide concentration (5 μM) and varying protein concentrations (from 0 to 200/400 μM).” left out, “constant±s.d. […]” for “constant±s.d.”
as §5, with “concentration.” for “concentration. Whenever possible, under pseudo first-order conditions, the equation 1 was simplified to:”

[10] = molecular target: T10, Nter-NPM1 E93A (Homo sapiens, UniProt P06748, E93A); test: Equilibrium fluorescence titration, Nter-NPM1 E93A mutant; details: dansylated peptide 5 μM; sodium phosphate 20 mM pH 7.2, 25 °C; triplicate, ±s.d.
T10 construct: inferred from pET28a NdeI/BamHI cloning and HisTrap purification) (N); made in house; host or cells: Escherichia coli BL21(DE3)
Procedure: as §1, §6
as §3, with “Titrations were performed at constant peptide concentration (5 μM) and varying protein concentrations (from 0 to 200/400 μM).” left out, “constant±s.d. […]” for “constant±s.d.”
as §5, with “concentration.” for “concentration. Whenever possible, under pseudo first-order conditions, the equation 1 was simplified to:”

[11] = molecular target: T11, Nter-NPM1 E121A (Homo sapiens, UniProt P06748, E121A); test: Equilibrium fluorescence titration, Nter-NPM1 E121A mutant; details: dansylated peptide 5 μM; sodium phosphate 20 mM pH 7.2, 25 °C; triplicate, ±s.d.
T11 construct: inferred from pET28a NdeI/BamHI cloning and HisTrap purification) (N); made in house; host or cells: Escherichia coli BL21(DE3)
Procedure: as §1, §6
as §3, with “Titrations were performed at constant peptide concentration (5 μM) and varying protein concentrations (from 0 to 200/400 μM).” left out, “constant±s.d. […]” for “constant±s.d.”
as §5, with “concentration.” for “concentration. Whenever possible, under pseudo first-order conditions, the equation 1 was simplified to:”

[12] = molecular target: T12, Nter-NPM1 D36A (Homo sapiens, UniProt P06748, D36A); test: Equilibrium fluorescence titration, Nter-NPM1 D36A mutant; details: dansylated peptide 5 μM; sodium phosphate 20 mM pH 7.2, 25 °C; triplicate, ±s.d.
T12 construct: inferred from pET28a NdeI/BamHI cloning and HisTrap purification) (N); made in house; host or cells: Escherichia coli BL21(DE3)
Procedure: as §1, §6
as §3, with “Titrations were performed at constant peptide concentration (5 μM) and varying protein concentrations (from 0 to 200/400 μM).” left out, “constant±s.d. […]” for “constant±s.d.”
as §5, with “concentration.” for “concentration. Whenever possible, under pseudo first-order conditions, the equation 1 was simplified to:”

[13] = molecular target: T13, Nter-NPM1 D36A-E39A (Homo sapiens, UniProt P06748, D36A/E39A); test: Equilibrium fluorescence titration, Nter-NPM1 D36A-E39A mutant; details: dansylated peptide 5 μM; sodium phosphate 20 mM pH 7.2, 25 °C; triplicate, ±s.d.
T13 construct: inferred from pET28a NdeI/BamHI cloning and HisTrap purification) (N); made in house; host or cells: Escherichia coli BL21(DE3)
Procedure: as §1, §6
as §3, with “Titrations were performed at constant peptide concentration (5 μM) and varying protein concentrations (from 0 to 200/400 μM).” left out, “constant±s.d. […]” for “constant±s.d.”
as §5, with “concentration.” for “concentration. Whenever possible, under pseudo first-order conditions, the equation 1 was simplified to:”

[14] = sodium phosphate 20 mM pH 7.2, 25 °C, triplicate, ±s.d., read-out: KD, D36A-E37A-E39A-E93A
[15] = sodium phosphate 20 mM pH 7.2, 25 °C, triplicate, ±s.d., read-out: KD, D36A-E39A-E93A

T3 sequence (P06748 16-123): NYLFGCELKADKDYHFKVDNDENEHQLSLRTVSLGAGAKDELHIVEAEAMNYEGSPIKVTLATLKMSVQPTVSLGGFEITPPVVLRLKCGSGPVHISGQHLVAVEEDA
T5 sequence (P06748 16-123 D36A/E39A/E93A): as the sequence (P06748 16-123) above, with D21A, E24A, E78A counted along it
T2 sequence (P06748 16-123 D36A/E37A/E39A/E93A): as the sequence (P06748 16-123) above, with D21A, E22A, E24A, E78A counted along it
T1 sequence (P06748 16-123 D36A/E37A/E39A/E93A/E121A): as the sequence (P06748 16-123) above, with D21A, E22A, E24A, E78A, E106A counted along it
T4 sequence (P06748 16-123 D36A/E39A/E93A/E121A): as the sequence (P06748 16-123) above, with D21A, E24A, E78A, E106A counted along it
T6 sequence (P06748 16-123 E39A): as the sequence (P06748 16-123) above, with E24A counted along it
T12 sequence (P06748 16-123 D36A): as the sequence (P06748 16-123) above, with D21A counted along it
T7 sequence (P06748 16-123 E39A/E93A): as the sequence (P06748 16-123) above, with E24A, E78A counted along it
T8 sequence (P06748 16-123 E37A): as the sequence (P06748 16-123) above, with E22A counted along it
T9 sequence (P06748 16-123 D36A/E93A): as the sequence (P06748 16-123) above, with D21A, E78A counted along it
T10 sequence (P06748 16-123 E93A): as the sequence (P06748 16-123) above, with E78A counted along it
T13 sequence (P06748 16-123 D36A/E39A): as the sequence (P06748 16-123) above, with D21A, E24A counted along it
T11 sequence (P06748 16-123 E121A): as the sequence (P06748 16-123) above, with E106A counted along it

| Kd [1] [µM] | Kd [2, 14] [µM] | Kd ([3]; SD, read-out: Nter-NPM1 KD) [µM] | Kd [4] [µM] | Kd [5, 15] [µM] | Kd [6] [µM] | Kd [7] [µM] | Kd [8] [µM] | Kd [9] [µM] | KD 100mM NaCl, D36A-E37A-E39A-E93A-E121A ([1]; sodium phosphate 20 mM plus 100 mM NaCl pH 7.2 (ionic strength 150 mM), 25 °C) | Kd ([2]; sodium phosphate 20 mM plus 100 mM NaCl pH 7.2 (ionic strength 150 mM), 25 °C, read-out: KD 100mM NaCl, D36A-E37A-E39A-E93A) [µM] | Kd [10] [µM] | Kd [11] [µM] | Kd [12] [µM] | Kd ([3]; wild type, sodium phosphate 20 mM plus 100 mM NaCl pH 7.2 (ionic strength 150 mM), 25 °C, dansylated peptide 5 μM, read-out: KD 100mM NaCl, Nter-NPM1) [µM] | Kd [13] [µM] | Kd ([5]; sodium phosphate 20 mM plus 100 mM NaCl pH 7.2 (ionic strength 150 mM), 25 °C, read-out: KD 100mM NaCl, D36A-E39A-E93A) [µM] | SMILES |
| --- | --- | --- | --- | --- | --- | --- | --- | --- | --- | --- | --- | --- | --- | --- | --- | --- | --- |
| 734 ± 158 | 71.4 ± 9.1 | 6.2 ± 0.9 | 82.8 ± 5.6 | 18.4 ± 2.6 | – | – | – | – | – | – | – | – | – | – | – | – | CC(C)C[C@H](NC(=O)[C@H](Cc1ccccc1)NC(=O)CNC(=O)[C@H](CCCNC(=N)N)NC(=O)[C@@H]1CCCN1C(=O)[C@H](C)NC(=O)[C@H](CCCCN)NC(=O)[C@H](CCCNC(=N)N)NC(=O)[C@H](CCCCN)NS(=O)(=O)c1cccc2c(N(C)C)cccc12)C(=O)N[C@@H](CCCCN)C(=O)N[C@@H](CCCNC(=N)N)C(=O)N[C@H](C(=O)N[C@@H](Cc1ccccc1)C(=O)N[C@@H](CCCCN)C(=O)N[C@@H](CCCNC(=N)N)C(=O)N[C@@H](CCCCN)C(=O)N[C@@H](CCCCN)C(=O)O)C(C)C [CENP-W*] (Dansyl-KRKAPRGFLKRVFKRKK-OH) |
| 654 ± 46.9 | 151 ± 20.5 | 3.2 ± 0.6 | 224 ± 35.9 | 22 ± 3 | 6.2 ± 1.5 | 7.6 ± 1.9 | 12.5 ± 1.4 | 8.4 ± 1.5 | No Interaction | 158 ± 12.3 | 5 ± 1.6 | 13.3 ± 3.8 | 10.8 ± 2.6 | 20.6 ± 2.6 | 13.5 ± 2 | 66.8 ± 12.5 | CSCC[C@H](NC(=O)[C@H](CCCNC(=N)N)NC(=O)[C@H](CCCNC(=N)N)NC(=O)[C@H](CCCNC(=N)N)NC(=O)[C@H](CS)NC(=O)[C@H](Cc1ccccc1)NC(=O)[C@@H]1CCCN1C(=O)[C@H](CC(C)C)NS(=O)(=O)c1cccc2c(N(C)C)cccc12)C(=O)N[C@@H](CCCCN)C(=O)N[C@@H](CCCNC(=N)N)C(=O)N[C@@H](CCCCN)C(=O)N[C@@H](CC(C)C)C(=O)N[C@@H](CC(=O)O)C(=O)N[C@@H](Cc1c[nH]cn1)C(=O)O [Fbw7γ*] (Dansyl-LPFCRRRMKRKLDH-OH) |
